{"source": "patent US20130251663A1", "about": "“Tissue Preservation Fluid” (GREENBLENDZ, INC., priority 2012, published 2013)", "origin": "cited, not measured here", "test_system": "eyes nose and throat", "conditions": "airborne exposure", "data": [{"compound": "C=O", "note": "[formaldehyde]", "values": [{"measurement": "Airborne concentration immediately dangerous to life and health", "value": 100, "unit": "ppm"}, {"measurement": "Airborne concentration that can cause irritation of the eyes nose and throat", "value": "above 0.1 ppm"}]}]}
